Experimental data from ChEMBL document CHEMBL5715260, “Selectivity Literature for EUbOPEN Chemogenomic Library” (2024).
Each block holds one compound with its values, some of them ahead of it. Where a SMILES comes first, the peptide text is derived from it. [ ]: non-standard residue; d: D form. The star is where a group is joined. Lys(Me,2-norbornyl) = CN(CCCC[C@H](N)C(=O)O)C1CC2CCC1C2; Benzoyl(4-tBu) = CC(C)(C)c1ccc(C(=O)*)cc1; Cbz = O=C(OCc1ccccc1)*; CH2F = FC*

Legend:
Design in all cases: recommended concentration 1 uM
[1] = molecular target: T1, Histone-lysine N-methyltransferase 2A (Homo sapiens, UniProt Q03164); assay: (§1) Selectivity interaction (Enzymatic assay) EUB0002166aAD MLL
T1 sequence (Q03164 1-2718 limits assumed): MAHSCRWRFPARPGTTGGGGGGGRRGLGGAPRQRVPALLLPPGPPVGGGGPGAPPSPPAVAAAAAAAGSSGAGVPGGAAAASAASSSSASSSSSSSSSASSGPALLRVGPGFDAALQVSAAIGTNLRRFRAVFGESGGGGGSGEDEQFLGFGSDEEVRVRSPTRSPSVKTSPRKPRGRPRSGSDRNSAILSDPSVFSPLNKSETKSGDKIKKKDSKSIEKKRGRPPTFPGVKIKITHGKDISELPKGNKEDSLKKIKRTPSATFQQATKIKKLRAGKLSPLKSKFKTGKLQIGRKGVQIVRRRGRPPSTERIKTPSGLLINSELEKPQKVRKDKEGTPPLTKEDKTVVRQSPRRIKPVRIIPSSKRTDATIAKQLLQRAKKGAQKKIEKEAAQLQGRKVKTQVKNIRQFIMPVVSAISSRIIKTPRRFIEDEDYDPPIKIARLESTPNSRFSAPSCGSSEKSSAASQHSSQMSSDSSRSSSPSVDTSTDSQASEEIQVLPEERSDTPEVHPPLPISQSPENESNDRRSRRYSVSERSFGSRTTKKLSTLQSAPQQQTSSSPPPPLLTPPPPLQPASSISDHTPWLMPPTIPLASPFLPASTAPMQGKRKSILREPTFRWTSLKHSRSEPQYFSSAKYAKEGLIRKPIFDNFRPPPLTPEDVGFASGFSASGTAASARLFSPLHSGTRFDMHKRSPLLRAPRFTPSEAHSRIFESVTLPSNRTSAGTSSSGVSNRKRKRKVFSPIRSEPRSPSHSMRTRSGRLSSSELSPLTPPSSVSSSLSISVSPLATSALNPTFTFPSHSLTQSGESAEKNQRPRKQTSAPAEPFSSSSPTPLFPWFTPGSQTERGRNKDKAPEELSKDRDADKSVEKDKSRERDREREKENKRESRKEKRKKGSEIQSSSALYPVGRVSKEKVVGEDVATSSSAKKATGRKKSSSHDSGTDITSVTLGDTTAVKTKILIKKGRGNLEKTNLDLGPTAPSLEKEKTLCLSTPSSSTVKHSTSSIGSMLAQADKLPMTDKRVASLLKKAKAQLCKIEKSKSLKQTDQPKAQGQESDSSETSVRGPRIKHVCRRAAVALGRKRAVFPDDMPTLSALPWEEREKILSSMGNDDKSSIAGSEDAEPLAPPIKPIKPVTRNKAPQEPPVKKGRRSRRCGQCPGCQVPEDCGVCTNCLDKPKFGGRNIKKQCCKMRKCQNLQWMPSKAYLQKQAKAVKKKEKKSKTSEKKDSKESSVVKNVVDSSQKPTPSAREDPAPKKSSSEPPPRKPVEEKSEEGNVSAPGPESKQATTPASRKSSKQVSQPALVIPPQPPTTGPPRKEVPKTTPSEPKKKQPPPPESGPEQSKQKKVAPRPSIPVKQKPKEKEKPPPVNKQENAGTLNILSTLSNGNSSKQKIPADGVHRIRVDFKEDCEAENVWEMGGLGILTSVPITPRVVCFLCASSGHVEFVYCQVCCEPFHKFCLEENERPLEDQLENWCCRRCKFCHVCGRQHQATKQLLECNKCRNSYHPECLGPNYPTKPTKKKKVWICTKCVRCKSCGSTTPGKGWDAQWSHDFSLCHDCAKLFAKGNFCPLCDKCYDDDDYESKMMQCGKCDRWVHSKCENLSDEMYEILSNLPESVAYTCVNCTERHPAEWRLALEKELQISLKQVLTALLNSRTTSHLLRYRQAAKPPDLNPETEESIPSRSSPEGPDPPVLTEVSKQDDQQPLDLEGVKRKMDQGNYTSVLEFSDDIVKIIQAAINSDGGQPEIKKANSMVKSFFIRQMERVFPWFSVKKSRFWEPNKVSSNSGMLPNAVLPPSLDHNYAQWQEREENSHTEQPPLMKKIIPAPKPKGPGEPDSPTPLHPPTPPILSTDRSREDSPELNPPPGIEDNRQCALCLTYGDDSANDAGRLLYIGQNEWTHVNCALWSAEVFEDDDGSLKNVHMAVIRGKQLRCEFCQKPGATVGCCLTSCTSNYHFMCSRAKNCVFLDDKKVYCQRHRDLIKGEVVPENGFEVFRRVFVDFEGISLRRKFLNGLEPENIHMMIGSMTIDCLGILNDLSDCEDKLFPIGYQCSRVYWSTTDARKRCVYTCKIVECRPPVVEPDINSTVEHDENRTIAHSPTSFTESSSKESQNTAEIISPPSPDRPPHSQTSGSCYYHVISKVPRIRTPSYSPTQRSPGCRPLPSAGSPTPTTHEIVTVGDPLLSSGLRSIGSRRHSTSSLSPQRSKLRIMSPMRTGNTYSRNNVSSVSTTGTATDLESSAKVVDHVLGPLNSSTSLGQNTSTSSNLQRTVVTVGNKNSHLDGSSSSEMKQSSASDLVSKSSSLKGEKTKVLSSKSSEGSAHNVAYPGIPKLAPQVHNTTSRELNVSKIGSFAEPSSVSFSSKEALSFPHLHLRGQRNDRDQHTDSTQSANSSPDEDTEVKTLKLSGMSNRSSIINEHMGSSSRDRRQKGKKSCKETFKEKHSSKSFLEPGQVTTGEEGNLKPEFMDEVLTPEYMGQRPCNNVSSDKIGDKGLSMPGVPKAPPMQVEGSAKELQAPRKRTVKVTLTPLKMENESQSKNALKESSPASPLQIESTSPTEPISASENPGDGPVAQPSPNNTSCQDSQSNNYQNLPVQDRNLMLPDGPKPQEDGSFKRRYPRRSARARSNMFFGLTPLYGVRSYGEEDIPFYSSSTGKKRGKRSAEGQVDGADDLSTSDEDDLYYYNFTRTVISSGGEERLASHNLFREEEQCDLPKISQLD
T1 sequence (Q03164 2719-3969 limits assumed): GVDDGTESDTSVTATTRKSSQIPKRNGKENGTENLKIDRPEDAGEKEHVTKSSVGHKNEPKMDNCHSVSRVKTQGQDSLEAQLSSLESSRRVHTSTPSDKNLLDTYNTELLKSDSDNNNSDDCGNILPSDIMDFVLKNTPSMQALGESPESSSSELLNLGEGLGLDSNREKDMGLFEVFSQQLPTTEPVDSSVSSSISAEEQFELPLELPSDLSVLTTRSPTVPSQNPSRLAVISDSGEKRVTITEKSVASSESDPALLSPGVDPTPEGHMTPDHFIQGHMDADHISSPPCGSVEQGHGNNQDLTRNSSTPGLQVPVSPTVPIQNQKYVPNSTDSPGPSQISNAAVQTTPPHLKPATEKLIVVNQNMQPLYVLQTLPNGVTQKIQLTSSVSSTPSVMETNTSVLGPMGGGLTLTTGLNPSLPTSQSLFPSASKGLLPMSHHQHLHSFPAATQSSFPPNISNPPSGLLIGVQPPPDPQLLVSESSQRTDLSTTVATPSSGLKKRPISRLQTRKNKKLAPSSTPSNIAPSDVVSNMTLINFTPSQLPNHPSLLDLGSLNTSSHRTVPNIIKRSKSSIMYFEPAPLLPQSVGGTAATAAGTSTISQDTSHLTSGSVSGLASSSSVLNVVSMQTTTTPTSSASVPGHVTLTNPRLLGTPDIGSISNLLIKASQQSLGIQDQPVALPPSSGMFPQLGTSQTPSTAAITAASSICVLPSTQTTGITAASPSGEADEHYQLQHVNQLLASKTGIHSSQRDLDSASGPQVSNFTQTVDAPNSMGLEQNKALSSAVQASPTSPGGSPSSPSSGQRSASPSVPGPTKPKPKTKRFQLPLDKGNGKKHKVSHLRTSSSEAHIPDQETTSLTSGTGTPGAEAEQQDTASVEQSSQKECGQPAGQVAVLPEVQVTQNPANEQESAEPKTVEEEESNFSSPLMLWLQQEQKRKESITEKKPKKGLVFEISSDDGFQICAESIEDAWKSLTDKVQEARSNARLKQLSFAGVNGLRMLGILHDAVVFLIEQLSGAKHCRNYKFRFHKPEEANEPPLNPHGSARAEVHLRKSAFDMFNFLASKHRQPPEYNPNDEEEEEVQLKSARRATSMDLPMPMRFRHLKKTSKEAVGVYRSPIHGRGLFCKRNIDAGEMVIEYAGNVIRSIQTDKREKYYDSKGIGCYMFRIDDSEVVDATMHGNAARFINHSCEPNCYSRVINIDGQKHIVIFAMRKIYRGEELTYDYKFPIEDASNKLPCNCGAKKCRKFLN

[2] = molecular target: T1, Histone-lysine N-methyltransferase 2A; assay: as §1; remark: listed apart in the source
Caspase-8 [3] = molecular target: T2, Caspase-8 (Homo sapiens, UniProt Q14790); assay: Selectivity interaction (Eurofins (enzymatic assay)) EUB0002202a CASP8
T2 sequence (Q14790 217-374 limits assumed): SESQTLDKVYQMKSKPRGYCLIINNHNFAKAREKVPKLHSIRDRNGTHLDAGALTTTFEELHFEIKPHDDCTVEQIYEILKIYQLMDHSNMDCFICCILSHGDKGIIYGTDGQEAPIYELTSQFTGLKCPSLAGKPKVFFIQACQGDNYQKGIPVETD
T2 sequence (Q14790 385-479 limits assumed): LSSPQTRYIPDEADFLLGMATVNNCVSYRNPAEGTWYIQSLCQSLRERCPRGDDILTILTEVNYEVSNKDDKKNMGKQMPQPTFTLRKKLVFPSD

Caspase-7 [4] = molecular target: T3, Caspase-7 (Homo sapiens, UniProt P55210); assay: Selectivity interaction (Eurofins (enzymatic assay)) EUB0002202a CASP7
T3 sequence (P55210 whole entry): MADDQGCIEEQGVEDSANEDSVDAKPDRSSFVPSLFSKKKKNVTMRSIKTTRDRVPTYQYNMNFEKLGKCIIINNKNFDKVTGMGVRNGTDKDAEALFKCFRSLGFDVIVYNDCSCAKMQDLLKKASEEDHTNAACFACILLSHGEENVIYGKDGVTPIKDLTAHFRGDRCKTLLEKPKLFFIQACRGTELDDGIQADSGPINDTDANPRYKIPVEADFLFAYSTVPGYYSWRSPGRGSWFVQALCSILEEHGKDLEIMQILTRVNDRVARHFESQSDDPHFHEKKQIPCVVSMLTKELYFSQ

Caspase-9 [5] = molecular target: T4, Caspase-9 (Homo sapiens, UniProt P55211); assay: Selectivity interaction (Eurofins (enzymatic assay)) EUB0002202a CASP9
T4 sequence (P55211 whole entry): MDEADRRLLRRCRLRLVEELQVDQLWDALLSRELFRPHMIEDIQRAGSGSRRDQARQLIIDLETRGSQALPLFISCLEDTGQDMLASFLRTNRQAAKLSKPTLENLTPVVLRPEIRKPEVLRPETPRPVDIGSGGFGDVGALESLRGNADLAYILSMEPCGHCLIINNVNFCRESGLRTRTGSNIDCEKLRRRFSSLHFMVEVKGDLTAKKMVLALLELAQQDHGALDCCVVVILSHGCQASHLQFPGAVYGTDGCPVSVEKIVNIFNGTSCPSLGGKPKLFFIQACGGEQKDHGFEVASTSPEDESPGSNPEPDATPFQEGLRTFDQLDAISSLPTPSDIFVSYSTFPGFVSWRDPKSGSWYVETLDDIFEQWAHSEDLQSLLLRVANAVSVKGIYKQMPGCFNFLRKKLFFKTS

Caspase-9 [6] = molecular target: T4, Caspase-9; assay: Selectivity interaction (Enzymatic assay) EUB0002177aAD CASP9
[7] = molecular target: E3 SUMO-protein ligase CBX4 (Homo sapiens, UniProt O00257); assay: Selectivity interaction (SPR) EUB0001090a CBX4
[8] = molecular target: Chromobox protein homolog 8 (Homo sapiens, UniProt Q9HC52); assay: Selectivity interaction (SPR) EUB0001090a CBX8
Chain of Chromobox protein homolog 8 (Q9HC52 whole entry): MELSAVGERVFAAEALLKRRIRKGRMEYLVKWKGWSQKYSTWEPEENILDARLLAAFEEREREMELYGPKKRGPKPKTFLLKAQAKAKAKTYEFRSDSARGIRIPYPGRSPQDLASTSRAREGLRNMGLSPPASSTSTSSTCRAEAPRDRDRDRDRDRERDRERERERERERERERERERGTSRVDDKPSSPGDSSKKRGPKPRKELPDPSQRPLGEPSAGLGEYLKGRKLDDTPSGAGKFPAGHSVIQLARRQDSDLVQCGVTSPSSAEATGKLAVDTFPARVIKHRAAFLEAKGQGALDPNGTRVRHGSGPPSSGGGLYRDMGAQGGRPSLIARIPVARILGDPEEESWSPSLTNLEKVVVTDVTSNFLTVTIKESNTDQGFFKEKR

[9] = molecular target: Chromodomain Y-like protein 2 (Homo sapiens, UniProt Q8N8U2); assay: Selectivity interaction (SPR) EUB0001090a CDYL2
[10] = molecular target: Chromobox protein homolog 6 (Homo sapiens, UniProt O95503); assay: Selectivity interaction (SPR) EUB0001090a CBX6
Chain of Chromobox protein homolog 6 (O95503 whole entry): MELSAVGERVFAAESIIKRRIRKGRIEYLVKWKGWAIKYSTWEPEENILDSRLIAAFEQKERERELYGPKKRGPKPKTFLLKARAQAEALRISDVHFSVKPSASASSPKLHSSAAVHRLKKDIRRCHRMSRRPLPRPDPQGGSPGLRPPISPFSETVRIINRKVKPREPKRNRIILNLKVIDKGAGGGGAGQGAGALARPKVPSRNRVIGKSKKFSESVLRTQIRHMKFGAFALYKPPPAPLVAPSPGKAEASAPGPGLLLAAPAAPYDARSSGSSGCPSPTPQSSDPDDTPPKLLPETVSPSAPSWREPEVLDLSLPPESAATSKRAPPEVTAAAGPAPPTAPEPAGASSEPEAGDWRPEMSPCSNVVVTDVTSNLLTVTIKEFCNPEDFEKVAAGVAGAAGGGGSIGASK

[11] = molecular target: T5, Chromobox protein homolog 2 (Homo sapiens, UniProt Q14781); assay: Selectivity interaction (SPR) EUB0001090a CBX2
T5 sequence (Q14781 whole entry): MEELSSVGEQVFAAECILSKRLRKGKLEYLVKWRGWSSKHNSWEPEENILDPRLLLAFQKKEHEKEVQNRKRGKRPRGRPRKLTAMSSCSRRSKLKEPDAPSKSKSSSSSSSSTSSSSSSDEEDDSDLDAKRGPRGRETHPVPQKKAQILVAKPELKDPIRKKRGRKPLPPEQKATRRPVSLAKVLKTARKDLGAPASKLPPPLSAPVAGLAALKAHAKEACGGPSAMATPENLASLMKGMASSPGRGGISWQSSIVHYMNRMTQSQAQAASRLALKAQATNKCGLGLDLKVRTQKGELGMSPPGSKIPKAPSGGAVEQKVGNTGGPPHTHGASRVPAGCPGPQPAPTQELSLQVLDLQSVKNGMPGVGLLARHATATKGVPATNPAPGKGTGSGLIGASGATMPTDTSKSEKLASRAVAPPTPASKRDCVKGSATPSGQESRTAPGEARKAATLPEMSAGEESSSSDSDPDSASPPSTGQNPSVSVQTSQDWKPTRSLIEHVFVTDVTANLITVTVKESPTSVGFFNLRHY

Caspase-7 [12] = molecular target: T3, Caspase-7; assay: (§2) Selectivity interaction (Enzymatic assay) EUB0002178aAD CASP7
Caspase-8 [13] = molecular target: T2, Caspase-8; assay: (§3) Selectivity interaction (Enzymatic assay) EUB0002178aAD CASP8
Caspase-8 [14] = molecular target: T2, Caspase-8; assay: as §3; remark: listed apart in the source
Caspase-9 [15] = molecular target: T4, Caspase-9; assay: (§4) Selectivity interaction (Enzymatic assay) EUB0002178aAD CASP9
Caspase-7 [16] = molecular target: T3, Caspase-7; assay: as §2; remark: listed apart in the source
Caspase-9 [17] = molecular target: T4, Caspase-9; assay: as §4; remark: listed apart in the source

Structure (SMILES): Cc1nc(F)ccc1-c1cc(Cn2ccn(C)c2=N)cc(C(=O)NCc2ccc(Cl)c(Cl)c2)c1
IC50 [1]: 0.0199 µM
IC50 [2]: 0.0199 µM

Structure (SMILES): CC[C@H](C)[C@H](NC(C)=O)C(=O)N[C@@H](CCC(=O)O)C(=O)N[C@H](C(=O)N[C@H](C=O)CC(=O)O)[C@@H](C)O (Ac-IETD-aldehyde)
IC50 (Caspase-9 [6]): 0.035 µM

Structure (SMILES): CC[C@H](C)[C@H](NC(=O)[C@H](CCC(=O)O)NC(=O)[C@@H](NC(C)=O)C(C)C)C(=O)N[C@H](C=O)CC(=O)O (Ac-VEID-aldehyde)
IC50 (Caspase-7 [12]): 0.162 µM
IC50 (Caspase-8 [13]): 0.026 µM
IC50 (Caspase-8 [14]): 0.026 µM
IC50 (Caspase-9 [15]): 0.002 µM
IC50 (Caspase-7 [16]): 0.162 µM
IC50 (Caspase-9 [17]): 0.002 µM

Further lines, results first:

IC50 (Caspase-8 [3]): 0.22 µM
IC50 (Caspase-7 [4]): 0.58 µM
IC50 (Caspase-9 [5]): 0.24 µM
Structure (SMILES): COC(=O)CC[C@H](NC(=O)[C@H](Cc1c[nH]c2ccccc12)NC(=O)OCc1ccccc1)C(=O)N[C@@H](Cc1cnc[nH]1)C(=O)N[C@@H](CC(=O)OC)C(=O)CF (Cbz-WE(OMe)HD(OMe)-CH2F)

Kd [7]: 0.0267 µM
Kd [8]: 0.458 µM
Kd [9]: 0.415 µM
Kd [10]: 0.543 µM
Kd [11]: 1.75 µM
Structure (SMILES): COC(=O)[C@H](CO)NC(=O)[C@H](CCCCN(C)C1CC2CCC1C2)NC(=O)[C@H](CC(C)C)NC(=O)[C@H](C)NC(=O)[C@H](Cc1ccccc1)NC(=O)c1ccc(C(C)(C)C)cc1 (some centres not stated) ({Benzoyl(4-tBu)}-FAL[Lys(Me,2-norbornyl)]S-OMe)
